Assay [1] deals with Aspergillus flavus. In words: Antimicrobial activity against Aspergillus flavus ATCC 16870 assessed as inhibition of cell wall synthesis in presence of sorbitol. The class given is functional.
Assay [2] has as its system Aspergillus fumigatus. In words: Antimicrobial activity against Aspergillus fumigatus GIMCC 3.19 incubated for 24 hrs in presence of fluconazole by checkerboard method. The class given is functional.
Assay [3] relates to Aspergillus fumigatus. The assay is described as follows: Synergistic antimicrobial activity against Aspergillus fumigatus GIMCC 3.19 assessed as fractional inhibitory concentration index incubated for 24 hrs in presence of fluconazole by checkerboard method. The format is functional.
Assay [4] has as its system Cryptococcus neoformans. In words: Antimicrobial activity against Cryptococcus neoformans ATCC 32719 incubated for 24 hrs in presence of polyoxin B by checkerboard method. The format is functional.
The subject of assay [5] is Cryptococcus neoformans. The assay is described as follows: Antimicrobial activity against Cryptococcus neoformans ATCC 32719 incubated for 24 hrs in presence of fluconazole by checkerboard method. The format is functional.
Assay [6] deals with Aspergillus flavus. The assay is described as follows: Antimicrobial activity against Fluconazole-resistant Aspergillus flavus ATCC 16870R incubated for 24 hrs by two fold serial dilution method. The class given is functional.
The subject of assay [7] is Candida albicans. In words: Antimicrobial activity against Candida albicans ATCC 76615 incubated for 24 hrs by two fold serial dilution method. The format is functional.
The nature of assay [8]: Inhibition of Candida tropicalis ATCC 750 chitin synthase using UDP-GlcNAc as substrate by TMB based microplate analyzer.
In assay [9] the test system is Aspergillus fumigatus. The assay is described as follows: Synergistic antimicrobial activity against Aspergillus fumigatus GIMCC 3.19 assessed as fractional inhibitory concentration index incubated for 24 hrs in presence of polyoxin B by checkerboard method. The format is functional.
The test system of assay [10] is Candida albicans. The assay is described as follows: Synergistic antimicrobial activity against Candida albicans ATCC 76615 assessed as fractional inhibitory concentration index incubated for 24 hrs in presence of polyoxin B by checkerboard method. The format is functional.
Assay [11] relates to Candida albicans. In words: Synergistic antimicrobial activity against Candida albicans ATCC 76615 assessed as fractional inhibitory concentration index incubated for 24 hrs in presence of fluconazole by checkerboard method. The format is functional.
In assay [12] the test system is Aspergillus flavus. The assay is described as follows: Synergistic antimicrobial activity against Aspergillus flavus ATCC 16870 assessed as fractional inhibitory concentration index incubated for 24 hrs in presence of polyoxin B by checkerboard method. The class given is functional.
Assay [13] concerns Candida tropicalis. In words: Inhibition of Candida tropicalis ATCC 750 chitin synthase using UDP-GlcNAc as substrate at 300 ug/ml by TMB based microplate analyzer relative to control. The settings on record: dose 300.0 µg/ml.
In assay [14] the test system is Cryptococcus neoformans. In words: Additive antimicrobial activity against Cryptococcus neoformans ATCC 32719 assessed as fractional inhibitory concentration index incubated for 24 hrs in presence of fluconazole by checkerboard method. The format is functional.
Assay [15] concerns Aspergillus fumigatus. In words: Antimicrobial activity against Aspergillus fumigatus GIMCC 3.19 incubated for 24 hrs in presence of polyoxin B by checkerboard method. The format is functional.
Assay [16] has as its system Aspergillus fumigatus. In words: Antimicrobial activity against Aspergillus fumigatus GIMCC 3.19 assessed as inhibition of cell wall synthesis in presence of sorbitol. The format is functional.
Assay [17] concerns Candida albicans. In words: Antimicrobial activity against Candida albicans ATCC 76615 assessed as inhibition of cell wall synthesis in presence of sorbitol. The class given is functional.
For assay [18], the system named is Candida albicans. In words: Antimicrobial activity against fluconazole-resistant Candida albicans ATCC 76615R incubated for 24 hrs by two fold serial dilution method. The format is functional.
Assay [19] concerns Cryptococcus neoformans. In words: Antimicrobial activity against Fluconazole-resistant Cryptococcus neoformans ATCC 32719R incubated for 24 hrs by two fold serial dilution method. The format is functional.
Assay [20] concerns Aspergillus flavus. The assay is described as follows: Antimicrobial activity against Aspergillus flavus ATCC 16870 incubated for 24 hrs by two fold serial dilution method. The class given is functional.
The test system of assay [21] is Cryptococcus neoformans. The assay is described as follows: Antimicrobial activity against Cryptococcus neoformans ATCC 32719 incubated for 24 hrs by two fold serial dilution method. The format is functional.
Assay [22] relates to Aspergillus flavus. The assay is described as follows: Antimicrobial activity against Aspergillus flavus ATCC 16870 incubated for 24 hrs in presence of polyoxin B by checkerboard method. The format is functional.
Assay [23] concerns Candida albicans. In words: Antimicrobial activity against Candida albicans ATCC 76615 incubated for 24 hrs in presence of polyoxin B by checkerboard method. The format is functional.
In assay [24] the test system is Cryptococcus neoformans. In words: Antimicrobial activity against Cryptococcus neoformans ATCC 32719 assessed as inhibition of cell wall synthesis in presence of sorbitol. The format is functional.
Assay [25] has as its system Aspergillus fumigatus. The assay is described as follows: Antimicrobial activity against Fluconazole-resistant Aspergillus fumigatus GIMCC 3.19R incubated for 24 hrs by two fold serial dilution method. The class given is functional.
Assay [26] deals with Aspergillus fumigatus. The assay is described as follows: Antimicrobial activity against Aspergillus fumigatus GIMCC 3.19 incubated for 24 hrs by two fold serial dilution method. The class given is functional.
For assay [27], the system named is Cryptococcus neoformans. The assay is described as follows: Additive antimicrobial activity against Cryptococcus neoformans ATCC 32719 assessed as fractional inhibitory concentration index incubated for 24 hrs in presence of polyoxin B by checkerboard method. The class given is functional.
Assay [28] deals with Aspergillus flavus. In words: Antimicrobial activity against Aspergillus flavus ATCC 16870 incubated for 24 hrs in presence of fluconazole by checkerboard method. The class given is functional.
Assay [29] concerns Aspergillus flavus. In words: Synergistic antimicrobial activity against Aspergillus flavus ATCC 16870 assessed as fractional inhibitory concentration index incubated for 24 hrs in presence of fluconazole by checkerboard method. The format is functional.
For assay [30], the system named is Candida albicans. In words: Antimicrobial activity against Candida albicans ATCC 76615 incubated for 24 hrs in presence of fluconazole by checkerboard method. The class given is functional.
Assay [31] relates to Candida albicans. In words: Antimicrobial activity against micafungin-resistant Candida albicans ATCC 76615R incubated for 24 hrs by two fold serial dilution method. The class given is functional.
Assay [32] is described as follows: Binding affinity to Candida tropicalis ATCC 750 chitin synthase assessed as inhibition constant by Lineweaver-Burk plot analysis.
Assay [33] concerns Candida tropicalis. In words: Non-competitive inhibition of Candida tropicalis ATCC 750 chitin synthase using UDP-GlcNAc as substrate assessed as decrease in Vmax with constant Km by Lineweaver-Burk plot analysis.

Converted amounts (≈) assume the structure as drawn. The source made the active and inactive calls. No cut-off for these calls is given here.

Here are results for eight molecules from ChEMBL document CHEMBL5634100, “Novel spiro[pyrrolidine-2,3'-quinoline]-2'-one derivatives containing piperazine fragment as potential chitin synthase inhibitors and antifungal agents: Design, synthesis and biological evaluation” (Eur J Med Chem, 2023).

The MIC is the lowest concentration that inhibits growth of the organism. The IC50 is the concentration that gives 50% inhibition. One may read the inhibition as the relative decrease from the control value, in per cent. The term Ki denotes the equilibrium dissociation constant of an inhibitor or competing ligand from its target.

For the molecule `O=C(c1c(F)cccc1F)N1CCN(CC(=O)N2CCCC23Cc2ccccc2NC3=O)CC1` (stereo not drawn), the MIC in [1] was determined as 256 µg/mL; in assay [2], 2 µg/mL; in [4], 2 µg/mL; in assay [5], 1 µg/mL; in assay [6], 64 µg/mL (≈ 137 µM); in [7] it was 1 µg/mL (≈ 2.13 µM). Also, the MIC in assay [15] amounted to 2 µg/mL; in [16], 64 µg/mL; in assay [17], 128 µg/mL; in assay [18], 64 µg/mL (≈ 137 µM); in assay [19] it was 128 µg/mL (≈ 273 µM); in assay [20] it was 2 µg/mL (≈ 4.27 µM). For the same molecule, the MIC worked out at 8 µg/mL (≈ 17.1 µM) in assay [21]; 1 µg/mL in [22]; 1 µg/mL in assay [23]; 256 µg/mL in [24]; 64 µg/mL (≈ 137 µM) in assay [25]; 0.5 µg/mL (≈ 1.07 µM) in assay [26]. Further, the figures for the minimal inhibitory concentration (MIC) in assay [28], in assay [30] and in [31] were 4 µg/mL, 1 µg/mL and 64 µg/mL (≈ 137 µM), respectively. For the same molecule, the “fractional inhibitory concentration index (FICI)” value is listed as 0.625 in assay [3]; 0.75 in assay [9]; 0.625 in [10]; 0.75 in [11]; 0.375 in assay [12]; 1.125 in assay [14]. Also, the “fractional inhibitory concentration index (FICI)” value came to 1.125 in assay [27] and 0.75 in assay [29]. This molecule also registered an IC50 in [8] of 110 µM. The inhibition in assay [13] was 83.4%.

In the case of `Cc1cccc(C(=O)N2CCN(CC(=O)N3CCCC34Cc3ccccc3NC4=O)CC2)c1` (stereo not drawn), the MIC in assay [7] was determined as 16 µg/mL (≈ 35.8 µM); in assay [20], 32 µg/mL (≈ 71.7 µM); in assay [21], 64 µg/mL (≈ 143 µM); in assay [26], 32 µg/mL (≈ 71.7 µM). This molecule also returned an inhibition in assay [13] of 49.4%.

For the molecule `O=C(c1cccc([N+](=O)[O-])c1)N1CCN(CC(=O)N2CCCC23Cc2ccccc2NC3=O)CC1` (stereo not drawn), the MIC in assay [1] stood at 128 µg/mL; in [6], 32 µg/mL (≈ 67 µM); in [7], 4 µg/mL (≈ 8.38 µM); in assay [16], 64 µg/mL; in [17], 128 µg/mL; in assay [18] it was 64 µg/mL (≈ 134 µM). Further, the minimum inhibitory concentration (MIC) in [19] stood at 64 µg/mL (≈ 134 µM); in [20], 4 µg/mL (≈ 8.38 µM); in [21] it was 32 µg/mL (≈ 67 µM); in assay [24], 256 µg/mL; in [25] it was 64 µg/mL (≈ 134 µM); in assay [26], 8 µg/mL (≈ 16.8 µM). Besides, it took 64 µg/mL (≈ 134 µM) to inhibit growth in assay [31] (MIC). Further, in assay [8], the midpoint of inhibition, the IC50, lay at 120 µM. Further, the inhibition in [13] turned out to be 81.2%. Moreover, the Ki in assay [32] is 140 µM. In assay [33], the inhibition result is “Active”.

In the case of `O=C(c1ccccc1Cl)N1CCN(CC(=O)N2CCCC23Cc2ccccc2NC3=O)CC1` (stereo not drawn), the MIC amounted to 16 µg/mL (≈ 34.3 µM) in assay [7], 16 µg/mL (≈ 34.3 µM) in assay [20], 32 µg/mL (≈ 68.5 µM) in assay [21] and 16 µg/mL (≈ 34.3 µM) in [26]. The same molecule returned an inhibition in assay [13] of 61.4%.

For `NC(=O)OC[C@H](O)[C@@H](O)[C@H](N)C(=O)N[C@H](C(=O)O)[C@H]1O[C@@H](n2cc(CO)c(=O)[nH]c2=O)[C@H](O)[C@@H]1O` [POLYOXIN B], the minimum inhibitory concentration (MIC) was 64 µg/mL in assay [1]; 8 µg/mL (≈ 15.8 µM) in assay [7]; 64 µg/mL in [16]; 64 µg/mL in assay [17]; 8 µg/mL (≈ 15.8 µM) in assay [20]; 16 µg/mL (≈ 31.5 µM) in assay [21]. The MIC was 128 µg/mL in assay [24] and 8 µg/mL (≈ 15.8 µM) in [26]. Further, in [8], inhibition was half-maximal at 90 µM (IC50). Further, in [13], the inhibition came out at 86.1%.

On to `O=C(c1ccc(F)cc1)N1CCN(CC(=O)N2CCCC23Cc2ccccc2NC3=O)CC1` (stereo not drawn), for which the minimal inhibitory concentration (MIC) in assay [1] amounted to 64 µg/mL; in assay [6], 64 µg/mL (≈ 142 µM); in assay [7], 4 µg/mL (≈ 8.88 µM); in assay [16], 256 µg/mL; in [17], 64 µg/mL; in [18], 64 µg/mL (≈ 142 µM). Also, the MIC in [19] was found to be 64 µg/mL (≈ 142 µM); in assay [20], 8 µg/mL (≈ 17.8 µM); in assay [21], 16 µg/mL (≈ 35.5 µM); in assay [24], 128 µg/mL; in [25], 64 µg/mL (≈ 142 µM); in [26] it was 8 µg/mL (≈ 17.8 µM). In addition, inhibition of growth in assay [31] (MIC) required 64 µg/mL (≈ 142 µM). For the same molecule, inhibition in assay [8] was half-maximal at 130 µM (IC50). This molecule also had an inhibition in [13] of 76.7%.

As for `CCc1ccc(C(=O)N2CCN(CC(=O)N3CCCC34Cc3ccccc3NC4=O)CC2)cc1` (stereo not drawn), the minimum inhibitory concentration (MIC) in [7] was determined as 32 µg/mL (≈ 69.5 µM); in assay [20], 128 µg/mL (≈ 278 µM); in [21], 32 µg/mL (≈ 69.5 µM); in assay [26], 64 µg/mL (≈ 139 µM). The molecule further showed an inhibition in assay [13] of 52.8%.

On to `COc1cccc(C(=O)N2CCN(CC(=O)N3CCCC34Cc3ccccc3NC4=O)CC2)c1` (stereo not drawn), for which the MIC worked out at 32 µg/mL (≈ 69.2 µM) in assay [7], 64 µg/mL (≈ 138 µM) in assay [20], 128 µg/mL (≈ 277 µM) in assay [21] and 32 µg/mL (≈ 69.2 µM) in [26]. The molecule also had an inhibition in [13] of 50.7%.
